Reference: patent US12295365B2, “Composition including an antimicrobial boosting agent including a sultaine and methods of increasing the antimicrobial effectiveness of a composition” (KIMBERLY-CLARK WORLDWIDE, INC., priority 2018, dated 2025)
Structures can show the parent of a compound that is named as a salt.

Test system: B. cepacia (ATCC 25416)
Assay: Minimum Effective Concentration (MEC) Test Method
Type: cell-based, Burkholderia cepacia
Settings: 24 hours at room temperature
Protocol: Initial testing was conducted to screen a variety of surfactants in researching for potential antimicrobial boosting agents. The initial testing followed the methodology as described in the Minimum Effective Concentration (“MEC”) Test Method described in the Test Methods section herein. To summarize, the MEC testing paired a variety of potential antimicrobial boosting agents with a variety of known antimicrobial agents to determine the MEC of the respective antimicrobial agent that must be used to provide an effective antimicrobial result, as described in further detail in the Test Methods section. The more positive the boosting characteristics of an antimicrobial boosting agent, then the lower the MEC that would be required for the paired antimicrobial agent. It is to be noted that the molarities listed in Table 1 are approximate values that were calculated based on the estimated activities of the ingredients and the molecular weights of the active ingredients. In instances where an exact activity was not available for an ingredient blend, the ingredient blend activity was estimated as the average of the upper and lower limits of the specification provided by the manufacturer of such blend. In instances where an exact molecular weight could not be calculated (for example, in compounds derived from a natural oil like coconut oil), the molecular weight of the active was estimated based on a weighted average of the molecular weights of the constituent species.
The Minimum Effective Concentration Test Method discussed herein began by adding B. cepacia (ATCC 25416) culture at a final concentration of approximately 5×10^6 CFU/mL to the composition to be challenged. The challenged composition was then allowed to incubate at room temperature for 24 hours. After 24 hours, a preservative neutralizing broth was added to the mixture and measurements were subsequently taken to determine the concentration of B. cepacia still remaining after exposure to the test composition.
The Minimum Effective Concentration was determined by completing the process described above on a series of compositions with the same concentration of antimicrobial boosting agent, but with different concentrations of antimicrobial agent. The Minimum Effective Concentration of antimicrobial agent for any given value of antimicrobial boosting agent was defined as the minimum concentration of antimicrobial agent required to reduce the concentration of B. cepacia to a level below the detection threshold for the test method, which was approximately 100 CFU/mL. In instances where multiple rounds of Minimum Effective Concentration testing were completed, the value reported is the mean of the Minimum Effective Concentration values generated by each individual series of tests.

[1] = boosting agent (the label) at 5 mmol/L

Question: With Laureth-3 Phosphate as the compound, how does the “MEC of Lactic Acid (Purac FCC 88) paired with the potential boosting agent” value (“MEC of Lactic Acid (Purac FCC 88) paired” below) [1] read?
Answer: 40 mmol/L

Question: How did the “MEC of Sodium Benzoate” value (no boosting agent) turn out when `O=C([O-])c1ccccc1.[Na+]` [Sodium Benzoate] was run?
Answer: 7.5 mmol/L

Question: How did the “MEC of Caprylhydroxamic Acid (Zeastat) paired with the potential boosting agent” value [1] turn out when `CCCCCCCCCCCC[N+](C)(C)CC(O)CS(=O)(=O)[O-]` (stereo not shown) [Lauryl Hydroxysultaine] was run?
Answer: <2 mmol/L

Question: And the “MEC of Hydroxyacetophenone (SymSave H) paired with the potential boosting agent” value [1]?
Answer: <5 mmol/L

Question: And the “MEC of Lactic Acid (Purac FCC 88) paired” value [1]?
Answer: 17 mmol/L

Question: And the “MEC of Sodium Benzoate paired with the potential boosting agent” value [1]?
Answer: <1 mmol/L

Question: `CCCCCCCC[N+](C)(C)CC(=O)[O-]` [Octyl Betaine] was tested. Which “MEC of Lactic Acid (Purac FCC 88) paired” value [1] did it give?
Answer: 40 mmol/L

Question: Which “MEC of Lactic Acid (Purac FCC 88) paired” value [1] does the source give for `C[N+](C)(CCCS(=O)(=O)[O-])Cc1ccccc1` [Benzyl Sultaine, 3-(Benzyldimethylammonio)propanesulfonate] here?
Answer: 40 mmol/L

Question: How did the “MEC of Lactic Acid (Purac FCC 88) paired” value [1] turn out when Lauramidopropyl Hydroxysultaine was run?
Answer: 30 mmol/L

Question: How did the “MEC of Caprylhydroxamic Acid (Zeastat)” value (no boosting agent) turn out when `CCCCCCCC(=O)NO` [Caprylhydroxamic Acid] was run?
Answer: 10 mmol/L

Question: `CCCCCCCCCCCCCC[N+](C)(C)CCCS(=O)(=O)[O-]` [Myristyl Sultaine, 3-(N,N-Dimethylmyristylammonio)propanesulfonate] was tested. Which “MEC of Lactic Acid (Purac FCC 88) paired” value [1] did it give?
Answer: 40 mmol/L

Question: With `CCCCCCCCCCCC[N+](C)(C)CCCS(=O)(=O)[O-]` [Lauryl Sultaine, N-Dodecyl-N,N-dimethyl-3-ammonio-1-propanesulfonate] as the compound, how does the “MEC of Hydroxyacetophenone (SymSave H) paired with the potential boosting agent” value [1] read?
Answer: 10 mmol/L

Question: What about the “MEC of Lactic Acid (Purac FCC 88) paired” value [1] of the same compound?
Answer: 20 mmol/L

Question: With `CCCCCCCC[N+](C)(C)CCCS(=O)(=O)[O-]` [Caprylyl Sultaine, 3-(N,N-Dimethyloctylammonio)propanesulfonate inner salt] as the compound, how does the “MEC of Lactic Acid (Purac FCC 88) paired” value [1] read?
Answer: 40 mmol/L

Question: `O=C(CO)c1ccccc1` [Hydroxyacetophenone] was tested. Which “MEC of Hydroxyacetophenone (SymSave H)” value (no boosting agent) did it give?
Answer: 20 mmol/L

Question: For `CCCCCCCCCCCCCCCC[N+](C)(C)CC(=O)[O-]` [Cetyl Betaine], which “MEC of Lactic Acid (Purac FCC 88) paired” value [1] is on record?
Answer: 40 mmol/L

Question: `CC(O)C(=O)O` (stereo not shown) [Lactic Acid] was tested. Which “MEC of Lactic Acid (Purac FCC 88)” value (no boosting agent) did it give?
Answer: 60 mmol/L

Question: Which “MEC of Lactic Acid (Purac FCC 88) paired” value [1] does the source give for Lauryl Glucoside here?
Answer: >30 mmol/L

Question: What about the “MEC of Sodium Benzoate paired with the potential boosting agent” value [1] of the same compound?
Answer: 10 mmol/L

Question: For `CCCCCCCC[N+](C)(C)[O-]` [Octyldimethylamine Oxide], which “MEC of Lactic Acid (Purac FCC 88) paired” value [1] is on record?
Answer: 40 mmol/L

Question: Which “MEC of Hydroxyacetophenone (SymSave H) paired with the potential boosting agent” value [1] does the source give for `CCCCCCCCCC[N+](C)(C)CCCS(=O)(=O)[O-]` [Decyl Sultaine, 3-(Decyldimethylammonio)-propanesulfonate inner salt] here?
Answer: 10 mmol/L

Question: And the “MEC of Lactic Acid (Purac FCC 88) paired” value [1]?
Answer: 30 mmol/L

Question: With “Sodium Laurylglucosides Hydroxypropylsulfonate” as the compound, how does the “MEC of Lactic Acid (Purac FCC 88) paired” value [1] read?
Answer: >50 mmol/L

Question: `C[N+](C)(CCO)CC(O)C[N+](C)(C)CCO.[Cl-].[Cl-]` [Hydroxypropyl Bis-Hydroxyethyldimonium Chloride] was tested. Which “MEC of Lactic Acid (Purac FCC 88) paired” value [1] did it give?
Answer: 50 mmol/L

Question: Which “MEC of Lactic Acid (Purac FCC 88) paired” value [1] does the source give for `CCCCCCCCCCCC(=O)OC(C)C(=O)OC(C)C(=O)[O-].[Na+]` (stereo not shown) [Sodium Lauroyl Lactylate] here?
Answer: 30 mmol/L
